The test system of this test is VEEV TC-83 virus titer reduction in cells. Briefly: VEEV TC-83 titer reduction, cell-based, secondary screen, TC-83 strain, set 4 (AID 651578). The settings on record: at 5 µM; hits give low values.

Results on 4 molecules are retold here after PubChem BioAssay AID651578 (Southern Research Specialized Biocontainment Screening …, 2012).

Active and inactive are the calls of the source. How the calls were made is not given here.

Take `COc1cccc(-n2c(CN3CCNCC3)nc3ccc([N+](=O)[O-])cc3c2=O)c1`: the log virus titer change is -0.354 (inactive).

Turning to `CCN1CCN(Cc2nc3ccc([N+](=O)[O-])cc3c(=O)n2-c2ccccc2F)CC1`, the log virus titer change is -3.36.

Consider `O=c1c2cc([N+](=O)[O-])ccc2nc(CN2CCNCC2)n1-c1ccsc1`, for which the log virus titer change was -0.997 (inactive).

In the case of `COc1ccc(-n2c(CN3CCNCC3)nc3ccc([N+](=O)[O-])cc3c2=O)cc1`, the log virus titer change is -7.41.
